Like-named read-outs stand apart in the source and are kept apart here.

For series [1], the system named is RS virus. The experiment in a line: RS virus cytopathology / syncytium formation in Hep-2 cells (Table 3). The following applies: for Suppression of RS virus syncytia (in words) / Effect on RS virus cytopathology (syncytia): Hep-2; for Effect on RS virus cytopathology (syncytia): added 2 hour post infection.
The subject of series [2] is Hep-2 cells.
Series [3] deals with RS virus. The following applies: moi 1-2, control titers 1-5 × 10^7.
For series [4], the system named is BHK-21.
Series [5] concerns CV-1.
For series [6], the system named is A549.
Series [7] concerns cell growth. The following applies: cited from earlier work.

`Cn1ccc2cc(C(=N)N)ccc21` [Compound 12, 5-Amidino-1-methylindole]: in series [1], the “Inhibition of RS virus / RS virus-induced cell fusion (general statement)” value is given as “inhibitively effective against RS virus” and the “Suppression of RS virus syncytia (in words)” value (“Suppression” for short) was “suppressed the appearance of the characteristic syncytia”. Further, the “Cytotoxicity relative to other compounds (in words)” value in series [2] is reported as “intermediate in their cytotoxicity”.

With `N=C(N)c1ccc(Cn2ccc3cc(C(=N)N)ccc32)cc1` [Compound 13, 5-Amidino-1-(4-amidinobenzyl)indole], in series [1], the “Inhibition of RS virus / RS virus-induced cell fusion (general statement)” value is “inhibitively effective against RS virus” and the “Suppression” value is “suppressed the appearance of the characteristic syncytia”. For the same molecule, in series [1] (0.1 μM), the “Effect on RS virus cytopathology (syncytia)” value is given as “S”. Besides, in series [1] (1.0 μM), the “Effect on RS virus cytopathology (syncytia)” value is “S”. Also, in series [2], the “Cytotoxicity relative to other compounds (in words)” value was “intermediate in their cytotoxicity”.

As for `N=C(N)c1ccc(OCCCCCCCCOc2ccccc2)cc1` [Compound 4, 1-(4-Amidinophenoxy)-8-phenoxyoctane], the “Effect on RS virus cytopathology (syncytia)” value in series [1] (10 μM) was “S”. Moreover, the “Single cycle yield of RS virus (RS virus titers)” value (shortened to “Single cycle yield of RS virus”) in series [3] (10 μM) is listed as 3.5 × 10^7 TCID50/ml.

As to `N=C(N)c1ccc2nc[nH]c2c1` [Compound 11, 5-Amidinobenzimidazole], in series [1], the “Inhibition of RS virus / RS virus-induced cell fusion (general statement)” value is recorded as “inhibitively effective against RS virus” and the “Suppression” value is recorded as “suppressed the appearance of the characteristic syncytia”. In addition, the “Effect on RS virus cytopathology (syncytia)” value in series [1] (1.0 μM) was “S”. The “Effect on RS virus cytopathology (syncytia)” value in series [1] (10 μM) is “S”. Also, the “Single cycle yield of RS virus” value in series [3] (100 μM) is given as 8.7 × 10^7 TCID50/ml. For the same molecule, in series [2], the “Cytotoxicity relative to other compounds (in words)” value is “possessed the same or even less toxic activity than benzamidine”.

As to `N=C(N)c1ccc2nc(CCc3nc4ccc(C(=N)N)cc4[nH]3)[nH]c2c1` [Compound 8, 1,2-Bis(5-amidino-2-benzimidazolyl)ethane], the “Inhibition of RS virus / RS virus-induced cell fusion (general statement)” value in series [1] was “inhibitively effective against RS virus”. The “Effect on RS virus cytopathology (syncytia)” value in series [1] (0.1 μM) and in series [1] (1.0 μM) was “S” each time. Moreover, in series [1], the “Suppression” value is “lower activity”. The “Single cycle yield of RS virus” value in series [3] (10 μM) is given as 6.3 × 10^7 TCID50/ml; in series [3] (100 μM) it was 7.9 × 10^7 TCID50/ml.

Turning to `N=C(N)c1ccc2occc2c1` [Compound 10, 5-Amidinobenzofuran], the “Effect on RS virus cytopathology (syncytia)” value in series [1] (10 μM) and in series [1] (100 μM) was “S” in each case. Further, the figures for the “Single cycle yield of RS virus” value in series [3] (10 μM) and in series [3] (100 μM) were 1.1 × 10^7 TCID50/ml and 6.3 × 10^7 TCID50/ml, respectively.

`N=C(N)c1ccc2[nH]ccc2c1` [Compound 9, 5-Amidinoindole]: the “Inhibition of RS virus / RS virus-induced cell fusion (general statement)” value in series [1] is listed as “inhibitively effective against RS virus”. Also, the “Effect on RS virus cytopathology (syncytia)” value in series [1] (0.1 μM) and in series [1] (1.0 μM) was “S” in each case. Besides, the “Single cycle yield of RS virus” value is on record as 2.9 × 10^7 TCID50/ml in series [3] (10 μM) and 6.3 × 10^7 TCID50/ml in series [3] (100 μM).

In the case of `N=C(N)c1ccc(OCCCCCCOc2ccccc2)cc1` [Compound 3, 1-(4-Amidinophenoxy-6-phenoxyhexane], the “Pattern of toxicity compared with Hep-2 cells” value in series [4], in series [5] and in series [6] was “identical pattern of toxicity” in each case. For the same molecule, the “Effect on RS virus cytopathology (syncytia)” value in series [1] (10 μM) is reported as “S”. Besides, the “Single cycle yield of RS virus” value in series [3] (10 μM) is reported as 3.5 × 10^7 TCID50/ml.

As for `N=C(N)c1ccccc1` [Compound 1, Benzamidine, reference compound], the “Concentration reducing cell growth rates” value in series [7] is given as “greater than 500 μM”. For the same molecule, in series [1] (50 μM), the “Effect on RS virus cytopathology (syncytia)” value was “S”. The “Single cycle yield of RS virus” value in series [3] (50 μM) is 1.1 × 10^7 TCID50/ml.
